{
  "source": "ChEMBL document CHEMBL4138270",
  "about": "“Discovery of MK-8722: A Systemic, Direct Pan-Activator of AMP-Activated Protein Kinase” (ACS Med Chem Lett, 2018)",
  "key": {"[1]": {"target": "AMPK alpha1/beta1/gamma3 (Homo sapiens) (UniProt Q9Y478+Q13131+Q9UGI9)", "sequence (Q13131 whole entry partner)": "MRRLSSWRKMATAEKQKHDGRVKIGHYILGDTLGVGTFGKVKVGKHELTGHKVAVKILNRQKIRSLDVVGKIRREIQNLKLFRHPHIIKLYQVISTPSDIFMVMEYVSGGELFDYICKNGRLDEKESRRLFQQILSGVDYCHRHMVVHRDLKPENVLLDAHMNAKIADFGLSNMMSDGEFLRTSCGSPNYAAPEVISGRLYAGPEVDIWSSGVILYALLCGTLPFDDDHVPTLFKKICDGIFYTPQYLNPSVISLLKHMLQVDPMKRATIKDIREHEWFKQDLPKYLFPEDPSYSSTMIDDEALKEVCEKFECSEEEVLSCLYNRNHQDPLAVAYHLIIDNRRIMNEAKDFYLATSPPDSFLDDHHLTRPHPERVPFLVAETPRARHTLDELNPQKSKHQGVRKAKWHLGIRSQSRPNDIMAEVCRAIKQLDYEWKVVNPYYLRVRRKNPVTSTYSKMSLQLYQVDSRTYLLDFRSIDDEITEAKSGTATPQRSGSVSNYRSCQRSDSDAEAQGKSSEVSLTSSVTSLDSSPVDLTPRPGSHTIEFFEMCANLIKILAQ", "sequence (Q9UGI9 whole entry partner)": "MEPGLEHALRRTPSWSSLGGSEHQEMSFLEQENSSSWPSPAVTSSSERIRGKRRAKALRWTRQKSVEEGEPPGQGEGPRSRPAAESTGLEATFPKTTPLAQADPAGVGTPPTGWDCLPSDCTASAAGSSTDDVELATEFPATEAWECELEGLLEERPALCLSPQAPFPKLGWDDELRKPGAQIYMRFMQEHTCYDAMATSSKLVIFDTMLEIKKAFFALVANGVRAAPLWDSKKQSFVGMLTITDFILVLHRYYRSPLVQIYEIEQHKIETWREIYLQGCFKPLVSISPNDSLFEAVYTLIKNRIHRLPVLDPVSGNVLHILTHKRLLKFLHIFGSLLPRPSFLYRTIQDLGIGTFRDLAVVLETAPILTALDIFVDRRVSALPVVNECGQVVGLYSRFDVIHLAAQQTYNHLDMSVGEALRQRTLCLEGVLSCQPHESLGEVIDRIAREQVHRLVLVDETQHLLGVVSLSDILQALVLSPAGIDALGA", "sequence (Q9Y478 2-270 limits assumed)": "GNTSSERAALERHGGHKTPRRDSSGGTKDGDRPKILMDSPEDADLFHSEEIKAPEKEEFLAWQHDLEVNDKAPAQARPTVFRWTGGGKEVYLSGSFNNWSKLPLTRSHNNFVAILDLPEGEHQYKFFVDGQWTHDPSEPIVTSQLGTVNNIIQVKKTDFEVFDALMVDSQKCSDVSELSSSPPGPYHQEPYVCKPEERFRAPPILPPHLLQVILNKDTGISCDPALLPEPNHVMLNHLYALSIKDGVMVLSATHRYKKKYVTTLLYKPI", "assay": "Activation of CaMKK2-phosphorylated AMPK3 alpha1/beta1/gamma3 (unknown origin) using fluorescein-labeled SAMS peptide as substrate pretreated for 30 mins in presence of AMP followed by substrate addition measured after 60 mins by fluorescence assay", "assay_type": "protein-complex assay"}, "[2]": {"target": "T1, AMPK alpha2/beta2/gamma1 (Homo sapiens) (UniProt P54646+O43741+P54619)", "T1 sequence (O43741 whole entry, looked up)": "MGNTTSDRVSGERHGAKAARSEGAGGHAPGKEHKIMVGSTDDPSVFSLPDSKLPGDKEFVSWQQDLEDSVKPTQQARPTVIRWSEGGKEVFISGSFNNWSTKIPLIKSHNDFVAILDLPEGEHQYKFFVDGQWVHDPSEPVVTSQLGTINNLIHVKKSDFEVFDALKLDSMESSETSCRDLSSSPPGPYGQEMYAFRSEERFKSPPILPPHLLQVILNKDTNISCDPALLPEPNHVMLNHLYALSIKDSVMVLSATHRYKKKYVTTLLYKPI", "T1 sequence (P54619 whole entry, looked up)": "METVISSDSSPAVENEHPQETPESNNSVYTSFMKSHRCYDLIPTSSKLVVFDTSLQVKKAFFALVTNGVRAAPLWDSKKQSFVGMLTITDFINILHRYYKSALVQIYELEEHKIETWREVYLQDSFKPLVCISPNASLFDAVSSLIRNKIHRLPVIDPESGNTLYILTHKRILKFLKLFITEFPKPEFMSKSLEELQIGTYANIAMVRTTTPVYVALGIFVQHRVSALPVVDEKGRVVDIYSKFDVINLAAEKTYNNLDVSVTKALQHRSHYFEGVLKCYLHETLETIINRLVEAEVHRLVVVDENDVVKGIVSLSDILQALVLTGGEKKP", "T1 sequence (P54646 whole entry, looked up)": "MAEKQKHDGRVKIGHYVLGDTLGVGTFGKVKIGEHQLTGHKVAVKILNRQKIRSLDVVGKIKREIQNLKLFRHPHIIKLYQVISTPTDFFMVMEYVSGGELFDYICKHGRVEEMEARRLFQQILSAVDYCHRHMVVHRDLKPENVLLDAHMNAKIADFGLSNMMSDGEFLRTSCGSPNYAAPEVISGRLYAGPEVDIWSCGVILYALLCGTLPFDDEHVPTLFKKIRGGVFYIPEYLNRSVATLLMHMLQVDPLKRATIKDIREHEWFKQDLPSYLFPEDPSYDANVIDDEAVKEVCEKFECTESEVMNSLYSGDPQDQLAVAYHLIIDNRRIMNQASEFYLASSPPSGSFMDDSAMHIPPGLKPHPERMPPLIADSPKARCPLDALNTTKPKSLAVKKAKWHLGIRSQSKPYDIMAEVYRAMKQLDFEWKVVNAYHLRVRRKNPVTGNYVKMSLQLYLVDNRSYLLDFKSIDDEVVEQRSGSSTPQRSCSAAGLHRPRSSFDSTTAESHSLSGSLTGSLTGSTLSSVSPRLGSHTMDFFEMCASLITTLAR", "assay": "Activation of CaMKK2-phosphorylated AMPK10 alpha2/beta2/gamma1 (unknown origin) assessed as ratio of 5-(6-chloro-5-(1-methyl-1H-indol-5-yl)-1H-benzo[d]imidazol-2-yloxy)-2-methylbenzoic acid maximum activation to test compound maximum activation at 50 uM using fluorescein-labeled SAMS peptide as substrate pretreated for 30 mins in presence of AMP followed by substrate addition measured after 60 mins by fluorescence assay relative to AMP", "assay_type": "protein-complex assay"}, "[3]": {"assay": "Drug level in C57BL/6 eDIO mouse plasma at 10 mg/kg, po measured at 2 to 3 hrs post dose", "assay_type": "ADME, organism-based", "conditions": "in vivo"}, "[4]": {"target": "AMPK alpha1/beta1/gamma2 (Homo sapiens) (UniProt Q9UGJ0+Q9Y478+Q13131)", "sequence (Q13131 whole entry partner)": "as the sequence (Q13131 whole entry partner) above", "sequence (Q9UGJ0 whole entry)": "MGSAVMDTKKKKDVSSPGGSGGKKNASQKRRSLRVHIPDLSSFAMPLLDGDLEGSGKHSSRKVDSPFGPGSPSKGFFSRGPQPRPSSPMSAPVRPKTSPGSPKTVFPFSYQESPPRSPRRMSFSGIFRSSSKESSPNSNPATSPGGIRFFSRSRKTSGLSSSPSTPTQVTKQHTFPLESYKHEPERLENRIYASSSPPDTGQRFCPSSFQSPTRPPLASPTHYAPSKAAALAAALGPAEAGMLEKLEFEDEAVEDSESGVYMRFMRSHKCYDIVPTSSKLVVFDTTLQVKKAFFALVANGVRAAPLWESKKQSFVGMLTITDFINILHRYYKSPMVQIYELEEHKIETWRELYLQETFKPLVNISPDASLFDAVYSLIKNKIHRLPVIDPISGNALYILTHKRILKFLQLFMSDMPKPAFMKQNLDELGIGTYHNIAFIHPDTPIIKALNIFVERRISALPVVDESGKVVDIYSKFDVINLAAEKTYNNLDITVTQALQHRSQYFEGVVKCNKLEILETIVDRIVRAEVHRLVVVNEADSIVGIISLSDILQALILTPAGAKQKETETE", "sequence (Q9Y478 2-270 partner limits assumed)": "as the sequence (Q9Y478 2-270 limits assumed) above", "assay": "Activation of CaMKK2-phosphorylated AMPK2 alpha1/beta1/gamma2 (unknown origin) using fluorescein-labeled SAMS peptide as substrate pretreated for 30 mins in presence of AMP followed by substrate addition measured after 60 mins by fluorescence assay", "assay_type": "protein-complex assay"}, "[5]": {"target": "AMPK alpha2/beta2/gamma3 (Homo sapiens) (UniProt P54646+O43741+Q9UGI9)", "assay": "Activation of CaMKK2-phosphorylated AMPK12 alpha2/beta2/gamma3 (unknown origin) using fluorescein-labeled SAMS peptide as substrate pretreated for 30 mins in presence of AMP followed by substrate addition measured after 60 mins by fluorescence assay", "assay_type": "protein-complex assay"}, "[6]": {"assay": "Drug level in C57BL/6 eDIO mouse plasma at 30 mg/kg, po measured at 2 to 3 hrs post dose", "assay_type": "ADME, organism-based", "conditions": "in vivo"}, "[7]": {"assay": "Apparent permeability in pig LLC-PK1 cells", "assay_type": "ADME, cell-based, Sus scrofa"}, "Mus musculus [8]": {"tested_on": "Mus musculus", "assay": "Antidiabetic activity in po dosed C57BL/6 eDIO mouse assessed as reduction in glucose excursion pretreated for 1 hr followed by glucose-challenge measured up to 90 mins by OGTT", "assay_type": "functional, organism-based"}, "[9]": {"target": "Amine oxidase [flavin-containing] B (Homo sapiens, UniProt P27338)", "assay": "Activity at MAOB (unknown origin)"}, "[10]": {"assay": "Ratio of drug level in liver to skeletal muscle in C57BL/6 db/+ mouse at 30 mg/kg, po administered as single dose measured after 2 hrs", "conditions": "in vivo"}, "[11]": {"target": "Sodium-dependent noradrenaline transporter (Homo sapiens) (UniProt P23975)", "assay": "Activity at NET (unknown origin)"}, "[12]": {"target": "AMP-activated protein kinase alpha-1/beta-2/gamma-3 (Homo sapiens) (UniProt O43741+Q13131+Q9UGI9)", "assay": "Activation of CaMKK2-phosphorylated AMPK6 alpha1/beta2/gamma3 (unknown origin) using fluorescein-labeled SAMS peptide as substrate pretreated for 30 mins in presence of AMP followed by substrate addition measured after 60 mins by fluorescence assay", "assay_type": "protein-complex assay"}, "[13]": {"assay": "Substrate activity at OATP1B2 (unknown origin) expressed in MDCK2 cells assessed as enzyme-mediated cellular uptake by liquid scintillation counting method", "assay_type": "ADME, cell-based", "conditions": "human, mdck"}, "Mus musculus [14]": {"tested_on": "Mus musculus", "assay": "Effect on xylose absorption in C57BL/6 eDIO mouse at 10 to 30 mg/kg, po measured up to 90 mins", "assay_type": "ADME, organism-based", "conditions": "in vivo, 1.5 h"}, "[15]": {"target": "AMP-activated protein kinase (AMPK) alpha-1/beta-1/gamma-1 (Homo sapiens) (UniProt P54619+Q9Y478+Q13131)", "assay": "Activation of CaMKK2-phosphorylated AMPK1 alpha1/beta1/gamma1 (unknown origin) assessed as ratio of 5-(6-chloro-5-(1-methyl-1H-indol-5-yl)-1H-benzo[d]imidazol-2-yloxy)-2-methylbenzoic acid EC50 to test compound EC50 using fluorescein-labeled SAMS peptide as substrate pretreated for 30 mins in presence of AMP followed by substrate addition measured after 60 mins by fluorescence assay", "assay_type": "protein-complex assay"}, "[16]": {"target": "5-hydroxytryptamine receptor 2A (Homo sapiens) (UniProt P28223)", "sequence (P28223 whole entry)": "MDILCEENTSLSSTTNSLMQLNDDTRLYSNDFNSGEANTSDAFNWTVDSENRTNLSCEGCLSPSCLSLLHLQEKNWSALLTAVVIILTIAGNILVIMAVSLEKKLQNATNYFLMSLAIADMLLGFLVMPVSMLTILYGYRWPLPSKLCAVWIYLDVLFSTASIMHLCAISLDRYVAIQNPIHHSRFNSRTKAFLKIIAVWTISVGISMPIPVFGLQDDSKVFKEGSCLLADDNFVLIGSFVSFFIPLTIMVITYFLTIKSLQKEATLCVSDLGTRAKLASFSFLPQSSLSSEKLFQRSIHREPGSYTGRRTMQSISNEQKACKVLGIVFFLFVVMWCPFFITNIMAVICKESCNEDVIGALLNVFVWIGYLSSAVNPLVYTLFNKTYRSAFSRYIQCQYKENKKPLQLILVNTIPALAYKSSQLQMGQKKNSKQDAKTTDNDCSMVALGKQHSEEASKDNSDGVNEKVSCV", "assay": "Activity at 5-HT2A (unknown origin)"}, "Mus musculus [17]": {"tested_on": "Mus musculus", "assay": "Antidiabetic activity in po dosed C57BL/6 eDIO mouse assessed as reduction in fasting blood glucose level pretreated for 1 hr followed by glucose-challenge measured up to 90 mins by OGTT", "assay_type": "functional"}, "Mus musculus [18]": {"tested_on": "Mus musculus", "assay": "In vivo activation of AMPK1 in C57BL/6 db/+ mouse assessed as ratio of phosphorylated ACC to total ACC in liver at 30 mg/kg, po administered as single dose measured after 2 hrs by MSD electrochemiluminescence assay relative to control"}, "[19]": {"target": "AMPK alpha1/beta2/gamma1 (Homo sapiens) (UniProt O43741+P54619+Q13131)", "assay": "Activation of CaMKK2-phosphorylated AMPK4 alpha1/beta2/gamma1 (unknown origin) using fluorescein-labeled SAMS peptide as substrate pretreated for 30 mins in presence of AMP followed by substrate addition measured after 60 mins by fluorescence assay", "assay_type": "protein-complex assay"}, "[20]": {"target": "Amine oxidase [flavin-containing] A (Homo sapiens, UniProt P21397)", "sequence (P21397 whole entry)": "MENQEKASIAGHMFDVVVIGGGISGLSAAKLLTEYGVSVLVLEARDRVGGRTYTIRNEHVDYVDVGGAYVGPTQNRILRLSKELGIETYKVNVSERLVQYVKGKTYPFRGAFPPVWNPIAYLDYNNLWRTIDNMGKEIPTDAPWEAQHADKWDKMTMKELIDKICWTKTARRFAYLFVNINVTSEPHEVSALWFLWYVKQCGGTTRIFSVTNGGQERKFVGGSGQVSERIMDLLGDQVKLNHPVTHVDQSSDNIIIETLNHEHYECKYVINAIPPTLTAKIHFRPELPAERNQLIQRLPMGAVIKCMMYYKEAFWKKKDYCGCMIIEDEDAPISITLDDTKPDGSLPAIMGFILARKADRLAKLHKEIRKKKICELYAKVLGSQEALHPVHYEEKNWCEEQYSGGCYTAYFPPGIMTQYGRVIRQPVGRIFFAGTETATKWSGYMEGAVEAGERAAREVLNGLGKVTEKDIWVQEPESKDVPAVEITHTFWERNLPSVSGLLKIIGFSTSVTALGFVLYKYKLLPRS", "assay": "Activity at MAOA (unknown origin)"}, "[21]": {"target": "AMP-activated protein kinase alpha-2/beta-2/gamma-2 (Homo sapiens) (UniProt P54646+O43741+Q9UGJ0)", "assay": "Activation of CaMKK2-phosphorylated AMPK11 alpha2/beta2/gamma2 (unknown origin) using fluorescein-labeled SAMS peptide as substrate pretreated for 30 mins in presence of AMP followed by substrate addition measured after 60 mins by fluorescence assay", "assay_type": "protein-complex assay"}, "[22]": {"target": "T1, AMPK alpha2/beta2/gamma1 (Homo sapiens)", "assay": "Activation of CaMKK2-phosphorylated AMPK10 alpha2/beta2/gamma1 (unknown origin) assessed as ratio of 5-(6-chloro-5-(1-methyl-1H-indol-5-yl)-1H-benzo[d]imidazol-2-yloxy)-2-methylbenzoic acid EC50 to test compound EC50 using fluorescein-labeled SAMS peptide as substrate pretreated for 30 mins in presence of AMP followed by substrate addition measured after 60 mins by fluorescence assay", "assay_type": "protein-complex assay"}, "Mus musculus [23]": {"tested_on": "Mus musculus", "assay": "Antidiabetic activity in C57BL/6 eDIO mouse assessed as reduction in fasting blood glucose level at 10 mg/kg, po measured up to 120 mins", "assay_type": "functional, organism-based"}, "[24]": {"target": "5'-AMP-activated protein kinase catalytic subunit alpha-2/beta-1/gamma-2 (Homo sapiens) (UniProt P54646+Q9UGJ0+Q9Y478)", "assay": "Activation of CaMKK2-phosphorylated AMPK8 alpha2/beta1/gamma2 (unknown origin) using fluorescein-labeled SAMS peptide as substrate pretreated for 30 mins in presence of AMP followed by substrate addition measured after 60 mins by fluorescence assay", "assay_type": "protein-complex assay"}, "[25]": {"target": "AMP-activated protein kinase alpha-1/beta-2/gamma-2 (Homo sapiens) (UniProt O43741+Q9UGJ0+Q13131)", "assay": "Activation of CaMKK2-phosphorylated AMPK5 alpha1/beta2/gamma2 (unknown origin) using fluorescein-labeled SAMS peptide as substrate pretreated for 30 mins in presence of AMP followed by substrate addition measured after 60 mins by fluorescence assay", "assay_type": "protein-complex assay"}},
  "note": "Active and inactive are the calls of the source. No cut-off for these calls is given here.",
  "data": [
    {"smiles": "O[C@@H]1CO[C@H]2[C@@H]1OC[C@H]2Oc1nc2nc(-c3ccc(-c4ccccc4)cc3)c(Cl)cc2[nH]1", "values": [
      {"measurement": "Activity", "setting": "[1]", "result": "Active"},
      {"measurement": "Ratio", "setting": "[2]", "result": 1.9},
      {"measurement": "concentration", "setting": "[3]", "result": 18, "unit": "µM"},
      {"measurement": "Activity", "setting": "[4]", "result": "Active"},
      {"measurement": "Activity", "setting": "[5]", "result": "Active"},
      {"measurement": "concentration", "setting": "[6]", "result": 59, "unit": "µM"},
      {"measurement": "Papp", "setting": "[7]", "result": 23.6, "unit": "×10⁻⁶ cm/s"},
      {"measurement": "Activity", "setting": "Mus musculus [8]", "result": "Dose-dependent effect"},
      {"measurement": "Activity", "setting": "[9]", "result": "3 to 10", "unit": "µM"},
      {"measurement": "Ratio", "setting": "[10]", "result": 3},
      {"measurement": "Activity", "setting": "[11]", "result": "3 to 10", "unit": "µM"},
      {"measurement": "Activity", "setting": "[12]", "result": "Active"},
      {"measurement": "Activity", "setting": "[13]", "result": "Not Active"},
      {"measurement": "Activity", "setting": "Mus musculus [14]", "result": "Non-Toxic"},
      {"measurement": "Ratio EC50", "setting": "[15]", "result": 1},
      {"measurement": "Activity", "setting": "[16]", "result": "3 to 10", "unit": "µM"},
      {"measurement": "Activity", "setting": "Mus musculus [17]", "result": "Dose-dependent effect"},
      {"measurement": "MEC", "setting": "Mus musculus [17]", "result": 1, "unit": "µM"},
      {"measurement": "fMEC", "setting": "Mus musculus [17]", "result": 1, "unit": "nM"},
      {"measurement": "fold change (FC)", "setting": "Mus musculus [18]", "result": 1.9},
      {"measurement": "Activity", "setting": "[19]", "result": "Active"},
      {"measurement": "Activity", "setting": "[20]", "result": "3 to 10", "unit": "µM"},
      {"measurement": "Activity", "setting": "[21]", "result": "Active"},
      {"measurement": "Ratio EC50", "setting": "[22]", "result": 0.3},
      {"measurement": "Activity", "setting": "Mus musculus [23]", "result": "Active"},
      {"measurement": "Activity", "setting": "[24]", "result": "Active"},
      {"measurement": "Activity", "setting": "[25]", "result": "Active"}
    ]}
  ]
}
